The results in this text go back to PMC5874133 (Science immunology, 2018).

Test [1] deals with recombinant HLA-A2 molecules (Homo sapiens, UniProt P04439, D140Y/D185E/D98H/E176V/E277Q/G131W/G231S/I119V/I121R/I166T/I218V/L300P/L318F/N151K/N90K/P208A/P217A/Q86G/Q94H/R138H/R169H/T345S). The test is described as follows: peptide binding to recombinant HLA-A2.
The test system of test [2] is ZnT8_186–194-reactive CD8^+ T-cell clone H017N. It counts as cell-based, human. Particulars: peptide-pulsed LCLs, 0.1 µM, 6 h, percent cytokine^+ cells, two experiments, p=0.008, Fig. 7E.
In test [3] the test system is D222D clone 2 or a MelanA26–35-reactive clone vs. cognate peptide-pulsed LCLs. The test is described as follows: inhibition of lysis of cognate peptide-pulsed LCLs by CD8^+ T-cell clones. The note with it: D222D clone 2 or MelanA26–35-reactive clone; 4 h, E/T 1/1; triplicate; Fig. 1F. The format is cell-based, human.
Test [4] relates to ZnT8_186–194-reactive CD8^+ T-cell clones. The test is described as follows: effect on MMr staining of ZnT8_186–194-reactive CD8^+ T-cell clones. It counts as cell-based, human. Particulars: normalized MMr fluorescence intensities between clones; Fig. 2B.

Ends that are not written are not given here.

The term Kd denotes the equilibrium constant for the complex coming apart. For the molecule VAANIVLTV [ZnT8_186–194], the Kd in test [1] amounted to 15 nM.

Take KAANIVLTV [B. stercoris mimotope]: in test [2], the “agonist potency relative to native ZnT8_186–194 peptide” value is “stronger agonist potency”. As to `C/C=C/[C@H]1O[C@@](O)([C@@H](C)[C@H](O)[C@H](C)[C@H]2OC(=O)/C(OC)=C/C(C)=C/[C@@H](C)[C@@H](O)[C@@H](CC)[C@@H](O)[C@H](C)C/C(C)=C/C=C/[C@@H]2OC)C[C@@H](O[C@H]2C[C@@H](O)[C@H](OC(N)=O)[C@@H](C)O2)[C@@H]1C` [concanamycin A], the “inhibition of lytic activity” value in test [3] is listed as “inhibited significantly”.

As to `Cc1nc(Nc2ncc(C(=O)Nc3c(C)cccc3Cl)s2)cc(N2CCN(CCO)CC2)n1` [dasatinib], the “effect on variability of MMr fluorescence intensity” value in test [4] was “reduced variability”. Consider AVAANIVLTV [ZnT8_185–194], for which the Kd in test [1] is 207 nM. Take `C[C@H]1CCC/C=C/[C@@H]2C[C@H](O)C[C@H]2[C@H](O)/C=C/C(=O)O1` [brefeldin A]: the “inhibition of lytic activity” value in test [3] is recorded as “marginally”.
